Paper PMC6130489, “Caffeic acid methyl and ethyl esters exert potential antidiabetic effects on glucose and lipid metabolism in cultured murine insulin-sensitive cells through mechanisms implicating activation of AMPK” (Pharmaceutical Biology, 2017)

Tests used:
PPAR-γ = test: Western immunoblot PPAR-γ in 3T3-L1 adipocytes; format: cell-based, mouse; conditions: 100 μM (Figure 4 legend)
Method: Insulin (100 nM) or aminoimidazole carboxamide ribonucleotide (AICAR; 1 mM) were added to some vehicle-treated wells 30 min prior to the end of the treatment and served as the positives controls. Protein content was assayed by the bicinchoninic acid method (Thermo Scientific Pierce Protein Research, Rockford, IL) standardized to bovine serum albumin. Western immunoblotting was performed as described elsewhere (Eid et al. [2010]). Membranes were incubated overnight with phospho-AMPK, phospho-Akt, GLUT4, GLUT1 and β-actin antibodies (1:1000 dilution, Cell Signalling Technology, Danvers, MA), or with PPAR-γ, SREBP-1 (1:200, Santa Cruze Biotechnology, Santa Cruz, CA), followed by incubation with HRP-coupled secondary antibody (1:10,000) for 1 h. Immunoreactive bands were visualized by enhanced chemiluminescence and quantified by the Scion Image program (Scion Corporation, Frederick, MD). Experiments were repeated on 3 different passages of cells, each passage containing all conditions in parallel.
Figure 4. CAME and CAEE inhibit C/EBP-β and PPAR-γ protein expression through mechanisms implicating AMPK pathway. Shown are representative blots of 3T3-adipocytes treated with the maximum nontoxic concentration (100 μM) of either CAME or CAEE. […] Data are expressed as C/EBP-β/β-actin (D), PPAR-γ/β-actin (E), phospho-Akt/pan-Akt (F) and phospho-AMPK/pan-AMPK (G). […]

AMPK = test: Western immunoblot phospho-AMPK in H4IIE cells; format: cell-based, rat; conditions: 50 μM, 18 h, AICAR 1 mM 30 min as positive control
Method: L6 cells myotubes, H4IIE cells and 3T3-L1 adipocytes were treated with either CAME, CAEE (50 μM each) or vehicle (DMSO) for 18 h. Insulin (100 nM) or aminoimidazole carboxamide ribonucleotide (AICAR; 1 mM) were added to some vehicle-treated wells 30 min prior to the end of the treatment and served as the positives controls. Protein content was assayed by the bicinchoninic acid method (Thermo Scientific Pierce Protein Research, Rockford, IL) standardized to bovine serum albumin. Western immunoblotting was performed as described elsewhere (Eid et al. [2010]). […] Immunoreactive bands were visualized by enhanced chemiluminescence and quantified by the Scion Image program (Scion Corporation, Frederick, MD). […]
Figure 2. […] (A) H4IIE hepatocytes were treated for 16 h with several concentrations (12.5, 25, 50 and100 μM) of either CAME or CAEE and G6Pase activity was determined colorimetrically using a commercial glucose assay kit as described under Materials and Methods. […] (D) Data are expressed as phospho-AMPK/pan-AMPK and are given as mean ± SEM from 3 experiments. *p < 0.05 indicates a significant difference, **(p < 0.01), ***(p < 0.001) from the vehicle control group.

G6Pase = target: T1, G6Pase (Rattus norvegicus, UniProt P43428); test: Enzymatic activity of G6Pase in H4IIE cells; format: cell-based; conditions: at 100 μM, relative to DMSO
T1 sequence (P43428 1-357): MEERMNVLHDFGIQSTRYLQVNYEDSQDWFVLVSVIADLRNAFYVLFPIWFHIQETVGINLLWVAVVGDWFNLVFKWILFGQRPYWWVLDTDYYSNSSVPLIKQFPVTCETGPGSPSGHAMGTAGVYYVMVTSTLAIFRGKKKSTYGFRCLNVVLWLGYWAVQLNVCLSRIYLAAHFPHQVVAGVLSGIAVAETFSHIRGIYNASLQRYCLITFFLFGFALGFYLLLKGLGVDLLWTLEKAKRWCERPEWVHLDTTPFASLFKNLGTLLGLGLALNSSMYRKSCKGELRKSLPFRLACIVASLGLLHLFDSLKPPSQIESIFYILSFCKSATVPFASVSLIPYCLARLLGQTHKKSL
Method: At 90% confluence, H4-IIE cells were treated with 12.5, 25, 50 and 100 μM of either CAME or CAEE in serum free medium. Vehicle (0.1% DMSO)-treated and 100 nM insulin-treated cells served as the negative and positive control respectively. The activity of G6Pase was assessed by measuring the rate of glucose production in the presence of a non-limiting amount of glucose-6-phosphate (G6P) as described elsewhere (Nachar et al. [2013]). Total glucose production was measured using a commercial glucose assay kit (AutoKit Glucose; Wako Diagnostics, Richmond, VA). Protein content was measured using bicinchoninic acid (BCA) assay (Simpson [2008]) and G6Pase activity was expressed in relation to protein content.
Figure 2. CAME and CAEE inhibit G6Pase by mechanisms involving activation of AMPK. (A) H4IIE hepatocytes were treated for 16 h with several concentrations (12.5, 25, 50 and100 μM) of either CAME or CAEE and G6Pase activity was determined colorimetrically using a commercial glucose assay kit as described under Materials and Methods. Data are expressed relative to vehicle control (0.1% DMSO, 0% inhibition). Insulin (100 nM) applied for similar treatment period served as the positive control. (B and C) Cells were treated with the optimal nontoxic concentration of either CAME, CAEE (50 μM each), or DMSO (0.1%) for 18 h, insulin (100 nM), AICAR (1 mM) applied for 30 min served as the positive controls. (B) The upper blot was probed with anti-phospho-AMPK antibody (Thr 172) and the lower blot was probed with anti-pan AMPK. (C) Blots were probed with antibodies against phospho-Akt (Ser 473) or pan-Akt. Immunoblots are representative of three independent experiments with similar results. (D) Data are expressed as phospho-AMPK/pan-AMPK and are given as mean ± SEM from 3 experiments. *p < 0.05 indicates a significant difference, **(p < 0.01), ***(p < 0.001) from the vehicle control group.

| SMILES | protein level of PPAR-γ (PPAR-γ) | AMPK phosphorylation (AMPK) | inhibition at 100 µM (G6Pase) |
| --- | --- | --- | --- |
| COC(=O)/C=C/c1ccc(O)c(O)c1 [CAME, CA methyl ester] | significantly reduced | increase in AMPK phosphorylation to the same extent as the positive control AICAR | 62 ± 6.9% |
| CCOC(=O)/C=C/c1ccc(O)c(O)c1 [CAEE, caffeic acid ethyl ester] | significantly reduced | increase in AMPK phosphorylation to the same extent as the positive control AICAR | 62.7 ± 6% |
